Consider 18 compounds from US20240059691A1 (KALVISTA PHARMACEUTICALS LIMITED, priority 2020, published 2024).

Format in all cases: biochemical
For one experiment, the target named is KLK1 (Homo sapiens (Human), UniProt P06870). The experiment can be described thus: Determination of related protease inhibition: KLK1 (fluorogenic substrate at Km). The note with it: 25° C. The method in brief:
(§1)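 Human protease + fluorogenic substrate (at Km) + test cpd, varied concns; fluorescence kinetic read 5 min, 25 °C. Linear slope → % activity vs uninhibited control; IC50 at 50% inhibition.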

Another experiment has as its target Human Factor XIIa (Homo sapiens (Human), UniProt P00748). The experiment can be described thus: Determination of FXIIa inhibition (fluorogenic substrate H-DPro-Phe-Arg-AFC, IC50 assay). The note with it: substrate H-DPro-Phe-Arg-AFC at Km, 25° C.; class scale A-G. The method in brief:
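Human FXIIa incubated at 25° C with fluorogenic substrate H-DPro-Phe-Arg-AFC at its Km concentration and varying compound concentrations. Fluorescence release monitored over 5 min at 25° C; linear rate expressed as % of uninhibited activity to derive IC50.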

For the next experiment, the target named is FXa (Homo sapiens (Human), UniProt P00742). Nature of the experiment: Determination of related protease inhibition: FXa (fluorogenic substrate at Km). The note with it: 25° C. The essentials:
as §1

In the next experiment the target is Plasma Kallikrein (Homo sapiens (Human), UniProt P03952). Nature of the experiment: Determination of related protease inhibition: Plasma Kallikrein (fluorogenic substrate at Km). The following applies: 25° C., read-out: IC50 (human PKal). The essentials: as §1
The next experiment deals with FXIa (Homo sapiens (Human), UniProt P03951). Nature of the experiment: Determination of related protease inhibition: FXIa (fixed substrate concentration of 100 μM). The note with it: 25° C. Here is the method:
Determination of Related Protease Inhibition
In vitro inhibition of related proteases was determined using an ([…] assay based on standard literature methods (see e.g. Shori et al., Biochem. Pharmacol., 1992, 43, 1209; Bouckaert et al., European Journal of Medicinal Chemistry 110 (2016) 181). Human serine protease enzymes Plasma Kallikrein, KLK1, FXa, Plasmin, Thrombin and Trypsin were assayed for enzymatic activity using an appropriate fluorogenic substrate at Km concentration, FXIa at fixed substrate concentration of 100 μM, and various concentrations of the test compound. Protease activity was measured by monitoring the accumulation of liberated fluorescence from the substrate over […]. The linear rate of fluorescence increase per minute was expressed as percentage (%) activity. IC50 values were calculated as the concentration of inhibitor giving 50% inhibition of the uninhibited enzyme activity (100%).

The next experiment deals with Thrombin (Homo sapiens (Human), UniProt P00734). The experiment can be described thus: Determination of related protease inhibition: Thrombin (fluorogenic substrate at Km). The note with it: 25° C. The essentials: as §1

Plasma Kallikrein, sequence (P03952 391-638): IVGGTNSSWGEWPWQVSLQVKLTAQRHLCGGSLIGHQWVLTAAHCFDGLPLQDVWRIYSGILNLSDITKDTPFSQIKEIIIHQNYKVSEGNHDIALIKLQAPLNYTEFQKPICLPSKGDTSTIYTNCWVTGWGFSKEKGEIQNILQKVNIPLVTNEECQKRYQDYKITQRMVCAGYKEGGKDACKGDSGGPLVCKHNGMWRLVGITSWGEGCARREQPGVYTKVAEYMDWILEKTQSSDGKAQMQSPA
Plasma Kallikrein, sequence (P03952 20-390 partner): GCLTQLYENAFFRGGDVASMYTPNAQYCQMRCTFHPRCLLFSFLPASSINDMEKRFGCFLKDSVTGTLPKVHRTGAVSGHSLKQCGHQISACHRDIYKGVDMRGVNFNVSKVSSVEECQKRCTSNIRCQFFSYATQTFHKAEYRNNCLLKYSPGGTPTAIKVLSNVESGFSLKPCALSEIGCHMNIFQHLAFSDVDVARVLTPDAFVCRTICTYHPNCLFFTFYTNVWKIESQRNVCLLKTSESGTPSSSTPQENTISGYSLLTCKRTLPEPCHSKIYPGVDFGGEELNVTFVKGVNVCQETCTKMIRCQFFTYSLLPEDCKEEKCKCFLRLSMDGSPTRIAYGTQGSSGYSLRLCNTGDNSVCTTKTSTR
KLK1, sequence (P06870 25-262): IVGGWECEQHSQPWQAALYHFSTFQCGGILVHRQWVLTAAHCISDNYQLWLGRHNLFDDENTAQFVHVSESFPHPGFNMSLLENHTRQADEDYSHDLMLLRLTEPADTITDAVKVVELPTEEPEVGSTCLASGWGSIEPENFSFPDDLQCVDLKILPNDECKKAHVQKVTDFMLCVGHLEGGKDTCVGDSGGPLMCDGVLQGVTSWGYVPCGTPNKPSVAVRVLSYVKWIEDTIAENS
FXa, sequence (P00742 235-488): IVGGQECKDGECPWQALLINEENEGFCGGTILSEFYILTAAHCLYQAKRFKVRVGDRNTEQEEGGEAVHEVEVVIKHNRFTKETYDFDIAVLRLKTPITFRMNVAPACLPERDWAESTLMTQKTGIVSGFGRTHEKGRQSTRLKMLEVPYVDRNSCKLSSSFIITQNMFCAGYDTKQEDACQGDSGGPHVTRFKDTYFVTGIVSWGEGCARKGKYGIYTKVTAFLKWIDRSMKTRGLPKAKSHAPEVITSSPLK
FXa, sequence (P00742 41-179 partner): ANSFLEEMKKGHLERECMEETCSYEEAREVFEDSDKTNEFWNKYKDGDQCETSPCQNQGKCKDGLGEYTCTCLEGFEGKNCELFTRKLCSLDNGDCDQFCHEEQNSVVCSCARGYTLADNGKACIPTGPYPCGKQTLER
FXIa, sequence (P03951 388-625): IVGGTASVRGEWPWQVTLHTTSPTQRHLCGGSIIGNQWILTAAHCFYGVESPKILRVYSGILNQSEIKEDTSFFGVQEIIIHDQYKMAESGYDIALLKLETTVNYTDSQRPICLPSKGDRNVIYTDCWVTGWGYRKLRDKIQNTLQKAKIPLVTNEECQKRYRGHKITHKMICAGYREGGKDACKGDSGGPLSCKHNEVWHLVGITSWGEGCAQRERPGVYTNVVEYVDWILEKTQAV
FXIa, sequence (P03951 19-387 partner): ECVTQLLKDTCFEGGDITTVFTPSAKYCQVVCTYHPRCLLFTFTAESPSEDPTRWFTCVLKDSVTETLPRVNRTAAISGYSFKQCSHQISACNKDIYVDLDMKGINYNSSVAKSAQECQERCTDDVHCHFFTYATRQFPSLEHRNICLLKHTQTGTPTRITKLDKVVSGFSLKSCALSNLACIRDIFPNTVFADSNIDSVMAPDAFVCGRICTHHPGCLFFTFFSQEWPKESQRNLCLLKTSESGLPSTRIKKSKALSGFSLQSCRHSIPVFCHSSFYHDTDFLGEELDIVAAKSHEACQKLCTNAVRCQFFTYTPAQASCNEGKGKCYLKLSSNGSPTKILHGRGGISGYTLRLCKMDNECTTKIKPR
Human Factor XIIa, sequence (P00748 373-615): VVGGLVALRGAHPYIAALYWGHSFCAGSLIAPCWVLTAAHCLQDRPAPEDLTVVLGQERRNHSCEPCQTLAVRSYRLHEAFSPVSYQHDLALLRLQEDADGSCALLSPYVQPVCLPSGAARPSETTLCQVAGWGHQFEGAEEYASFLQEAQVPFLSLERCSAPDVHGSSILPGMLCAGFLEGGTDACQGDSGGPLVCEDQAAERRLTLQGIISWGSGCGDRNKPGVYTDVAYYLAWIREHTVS

On to `CC(C)N1C[C@H]2C[C@@H]1CN2CCc1ccc(CNc2cccc3c(N)nccc23)c(F)c1` (stereo in doubt) [Example 2213, N5-[[2-fluoro-4-[2-[(1R,4R)-5-isopropyl-2,5-diazabicyclo[2.2.1]heptan-2-yl]ethyl]phenyl]methyl]isoquinoline-1,5-diamine], for which the IC50 (commonly the concentration needed to halve the response being measured) against KLK1 was 10 to 40 µM; against Human Factor XIIa it was 0.1 to 0.3 µM; against FXa it was > 40 µM; at Plasma Kallikrein, 10 to 40 µM; against FXIa it was > 40 µM; against Thrombin, > 40 µM.

For the compound `CC(C)N1CCC(COc2ccc(CNc3ccc4c(N)nccc4c3)cn2)CC1` [Example 1012, N6-((6-((1-isopropylpiperidin-4-yl)methoxy)pyridin-3-yl)methyl)isoquinoline-1,6-diamine], the IC50 against Human Factor XIIa was 0.1 to 0.3 µM; against FXa, 10 to 40 µM; at Plasma Kallikrein, 1 to 3 µM; at FXIa, > 20 µM; against Thrombin it was 3 to 10 µM.

Regarding `CN1CCC(COc2ncc(CNc3ccc4c(N)nccc4c3)cn2)CC1` [Example 1013, 6-N-({2-[(1-methylpiperidin-4-yl)methoxy]pyrimidin-5-yl}methyl)isoquinoline-1,6-diamine], the IC50 is 0.1 to 0.3 µM against Human Factor XIIa; 3 to 10 µM on FXa; 3 to 10 µM at Plasma Kallikrein; > 20 µM on FXIa; 3 to 10 µM against Thrombin.

For the compound `CC(C)N1CC2(CN(Cc3ccc(CNc4ccc5c(N)nccc5c4)c(F)c3)C2)C1` [Example 1037, 6-N-{[2-fluoro-4-({6-isopropyl-2,6-diazaspiro[3.3]heptan-2-yl}methyl)phenyl]methyl}isoquinoline-1,6-diamine], the IC50 against KLK1 is 3 to 10 µM; against Human Factor XIIa, 0.3 to 1 µM; against FXa, > 40 µM; on Plasma Kallikrein, 10 to 40 µM; against FXIa, > 40 µM; against Thrombin, 10 to 40 µM.

Consider `CN1CCC(CCc2ccc(CNc3ccc4c(N)nccc4c3)cc2)CC1` [Example 2177, N6-(4-(2-(1-methylpiperidin-4-yl)ethyl)benzyl)isoquinoline-1,6-diamine], for which the half-maximal inhibitory concentration (IC50) on Human Factor XIIa is 0.1 to 0.3 µM; against FXa it was 3 to 10 µM; on Plasma Kallikrein, 1 to 3 µM; against FXIa, > 40 µM; on Thrombin, 3 to 10 µM.

On to `CN1CCC(CCc2ccc(CNc3cccc4c(N)nccc34)cc2)CC1` [Example 2178, 5-N-({4-[2-(1-methylpiperidin-4-yl)ethyl]phenyl}methyl)isoquinoline-1,5-diamine], for which the IC50 is 0.01 to 0.1 µM against Human Factor XIIa; > 40 µM on FXa; 10 to 40 µM on Plasma Kallikrein; > 40 µM against FXIa; > 40 µM on Thrombin.

Regarding `CN1CCC(OCc2ccc(CNc3ccc4c(N)nccc4c3)cc2)CC1` [Example 2185, N6-(4-(((1-methylpiperidin-4-yl)oxy)methyl)benzyl)isoquinoline-1,6-diamine], the IC50 was 0.1 to 0.3 µM on Human Factor XIIa; 3 to 10 µM on FXa; 3 to 10 µM at Plasma Kallikrein; > 40 µM at FXIa; 3 to 10 µM on Thrombin.

Consider `CN1CCC(OCc2ccc(CNc3ccc4c(N)nccc4c3)c(Cl)c2)CC1` [Example 2192, N6-(2-chloro-4-(((1-methylpiperidin-4-yl)oxy)methyl)benzyl)isoquinoline-1,6-diamine], for which the 50% inhibitory concentration (IC50) against Human Factor XIIa is 0.1 to 0.3 µM; against FXa, 1 to 3 µM; at Plasma Kallikrein, 3 to 10 µM; at FXIa, > 40 µM; against Thrombin, 3 to 10 µM.

Take `CN1CCC(OCc2ccc(CNc3ccc4cnccc4c3)cc2)CC1` [Example 2193, N-(4-(((1-methylpiperidin-4-yl)oxy)methyl)benzyl)isoquinolin-6-amine]: the IC50 at Human Factor XIIa was 3 to 10 µM; against FXa it was > 20 µM; at Plasma Kallikrein it was > 20 µM; against FXIa it was > 20 µM; on Thrombin it was > 20 µM.

As for `CN1CCC(OCc2ccc(CNc3ccc4c(N)nccc4c3)cc2)C(F)(F)C1` (centres unmarked) [Example 2194, N6-(4-(((3,3-difluoro-1-methylpiperidin-4-yl)oxy)methyl)benzyl)isoquinoline-1,6-diamine], the IC50 against Human Factor XIIa is 1 to 3 µM; against FXa it was 10 to 40 µM; on Plasma Kallikrein it was 10 to 40 µM; on FXIa, > 40 µM; on Thrombin it was 10 to 40 µM.

`Nc1nccc2cc(NCc3ccc(COC4CCN(C5CC5)CC4)cc3)ccc12` [Example 2195, 6-N-[(4-{[(1-cyclopropylpiperidin-4-yl)oxy]methyl}phenyl)methyl]isoquinoline-1,6-diamine]: the IC50 is 0.3 to 1 µM at Human Factor XIIa; 10 to 40 µM against FXa; 3 to 10 µM on Plasma Kallikrein; > 40 µM at FXIa; 10 to 40 µM at Thrombin.

As for `Nc1nccc2cc(NCc3ccc(COC4CCN(CC(F)F)CC4)cc3)ccc12` [Example 2196, 6-N-{[4-({[1-(2,2-difluoroethyl)piperidin-4-yl]oxy}methyl)phenyl]methyl}isoquinoline-1,6-diamine], the IC50 against Human Factor XIIa was 1 to 3 µM; against FXa, 10 to 40 µM; on Plasma Kallikrein, 10 to 40 µM; on FXIa it was > 40 µM; against Thrombin, 10 to 40 µM.

In the case of `CCN1CCC(OCc2ccc(CNc3cccc4c(N)nccc34)c(F)c2)CC1` [Example 2201, 5-N-[(4-{[(1-ethylpiperidin-4-yl)oxy]methyl}-2-fluorophenyl)methyl]isoquinoline-1,5-diamine], the IC50 at Human Factor XIIa is 0.01 to 0.1 µM; against FXa, > 20 µM; at Plasma Kallikrein, 10 to 40 µM; against FXIa, > 20 µM; at Thrombin, > 20 µM.

Regarding `CCN1CCC(OCc2ccc(CNc3ccc4c(N)nccc4c3)c(F)c2)CC1` [Example 2202, 6-N-[(4-{[(1-ethylpiperidin-4-yl)oxy]methyl}-2-fluorophenyl)methyl]isoquinoline-1,6-diamine], the IC50 against Human Factor XIIa is 0.1 to 0.3 µM; on FXa, 3 to 10 µM; on Plasma Kallikrein it was 1 to 3 µM; at FXIa, > 20 µM; at Thrombin, 3 to 10 µM.

In the case of `CN1CCC(CCn2cc(CNc3ccc4c(N)nccc4c3)cn2)CC1` [Example 3254, N6-((1-(2-(1-methylpiperidin-4-yl)ethyl)-1H-pyrazol-4-yl)methyl)isoquinoline-1,6-diamine], the IC50 at Human Factor XIIa was 0.3 to 1 µM; at FXa it was 3 to 10 µM; at Plasma Kallikrein, 3 to 10 µM; against FXIa it was > 20 µM; against Thrombin it was 3 to 10 µM.

Regarding `CN1CCC(COc2cc(CNc3ccc4c(N)nccc4c3)ccn2)CC1` [Example 4261, N6-((2-((1-methylpiperidin-4-yl)methoxy)pyridin-4-yl)methyl)isoquinoline-1,6-diamine], the IC50 on Human Factor XIIa is 0.01 to 0.1 µM; against FXa, 0.3 to 1 µM; on Plasma Kallikrein, 3 to 10 µM; at FXIa, > 20 µM; on Thrombin, 3 to 10 µM.

On to `Nc1nccc2c(NCc3ccnc(OCC4CCn5ccnc5C4)c3)cccc12` (centres unmarked) [Example 4298, N5-((2-((5,6,7,8-tetrahydroimidazo[1,2-a]pyridin-7-yl)methoxy)pyridin-4-yl)methyl)isoquinoline-1,5-diamine], for which the IC50 was 3 to 10 µM against KLK1; 0.01 to 0.1 µM against Human Factor XIIa; > 40 µM on Plasma Kallikrein; 10 to 40 µM against FXIa; > 40 µM against Thrombin.

With `Nc1nccc2cc(NCc3ccnc(-c4cccc(CN5CCCC5)c4)c3)ccc12` [Example 5434, N6-((2-(3-(pyrrolidin-1-ylmethyl)phenyl)pyridin-4-yl)methyl)isoquinoline-1,6-diamine], the 50% inhibitory concentration (IC50) was 1 to 3 µM against Human Factor XIIa; 1 to 3 µM against FXa; 1 to 3 µM on Plasma Kallikrein; > 40 µM against FXIa; 1 to 3 µM against Thrombin.
